Values joined by “and” are separate entries in the source; they are usually repeats but may differ in a detail not shown here. Equal values may be shown once.
How the values were obtained:
viable left ventricle = test: left ventricular viability after myocardial infarction, imaging agent 1 versus FDG; type: in vivo, rat
Protocol: MI was induced in rats by 30 minutes of\ coronary occlusion followed reperfusion. […] Viable left ventricle was quantified in images as the volume with ≥50% of maximum activity.

[1] = syringe component adsorption of imaging agent 1; type: physicochemical; details: B&D syringe, three hours
Protocol: To further identify the contact surface material that contributed to syringe retention of imaging agent 1, three additional B&D syringes were each filled with a 1 mL solution of imaging agent 1 then maintained at ambient temperature and humidity for a period of three hours. Following transfer of the individual doses as described in Example 1, the syringe barrel and butyl rubber tip plunger were then separated, measured for retained radioactivity and decay corrected. The difference in percent retained activity is statistically significant at the 95% confidence level (i.e. Prob>|t| 0.0017).

patients = test: Phase 2 clinical safety of imaging agent 1 injection; type: in vivo, human
healthy adults = test: clinical safety evaluation after single dose at rest; type: in vivo, human; details: 13 healthy adults
Protocol: This was a non-randomized, open-label, single-dose study. A total of 13 healthy adult subjects were enrolled and administered a single dose of imaging agent 1 at a single study center in the United States. Subjects were screened within 14 days prior to enrollment to confirm subject eligibility, and began baseline assessments at the study center the day before study drug administration. Subjects remained at the study center until completion of the Study Day 2 safety assessments (24±8 hours post-dose). A telephone call was made to study subjects 48±8 hours post-dose for adverse event (AE) monitoring. All subjects returned to the study center approximately one week (5-7 days) post-dose for a follow-up safety visit, and were contacted by telephone approximately 14-17 days post-dose for final serious AE monitoring.

[2] = early elimination of ^18F in urine; type: in vivo, human
Protocol: Urine collected pre-dose (Baseline), and all voids up to 8 hours post-dose were collected and assayed for ^18F. However, as in blood collection, the urine collection terminated near the 7-hour minimum specified in the protocol. Mean urinary excretion over the approximate 7-hour void interval was 4.83% ID with a % CV of 64.7 and a range of 0.64% ID to 12.41% ID. This finding is in reasonable agreement with cumulative urine excretion of 5% as measured with PET imaging.

[3] = system: chronic myocardial infarct (MI); test: cardiac PET imaging in control and chronic myocardial infarct rabbits; type: in vivo; details: MI rabbit, images 20-30 min after injection
Excerpt: Male New Zealand rabbits (body weight 2.5-3.5 kg) were purchased from Harlan (Oakwood, Mich.) and maintained in the AAALAC-accredited Animal Care Facility at Lantheus Medical Imaging. The study protocol was approved by the Institutional Animal Care and Use Committee. The procedure of developing a rabbit model of myocardial infarction (MI) was similar to the method described previously (Fujita M, Morimoto Y, Ishihara M, Shimizu M, Takase B, Maehara T et al. A new rabbit model of myocardial infarction without endotracheal intubation. J Surg Res 2004; 116:124-8). Briefly, the rabbit was anesthetized with ketamine (40 mg/Kg, im) and xylazine (9 mg/Kg, im) and placed in a supine position. The surgery was performed under aseptic conditions. A mid-sternotomy was performed carefully to avoid injury of parietal pleura. The pericardial sac was exposed and incised. […]
PET images and cardiovascular parameters were evaluated in both normal and MI rabbits. […] In addition, electrocardiogram (ECG) was also recorded with 3 non-invasive limb leads in lead II configuration using the BIOPAC system. […] After a stabilization period, cardiovascular parameters: MAP, SBP, DBP and ECG, were recorded 5 minutes before imaging agent 1 intravenous injection (˜1.5 mCi) and the recording continued for additional 20 minutes post-injection. […]

[4] = system: stress induced myocardial perfusion abnormalities; test: rest-stress imaging agent 1 PET versus Tc-99m Sestamibi SPECT MPI, single center; type: in vivo, human; details: myocardial segments supplied by diseased coronary arteries, 13 patients
Protocol: Thirteen patients, from a single center, underwent rest-stress Tc-99m Sestamibi SPECT MPI, rest-stress imaging agent 1 PET MPI and coronary angiography. In each patient, 17 myocardial segments were visually scored for rest and stress images by independent observers who were blinded to all other results. For each patient, summed stress scores (SSS), summed rest scores (SRS), and summed difference scores (SDS) were determined from segmental scores. Percent narrowing in each coronary artery was evaluated blindly and 70% luminal diameter narrowing was considered significant.

anesthetized naive dogs = test: cardiovascular changes in anesthetized naive dogs; type: in vivo, dog; details: intravenous injection, unpublished data

**Q.** Which left ventricular volume (viable left ventricle; control rats before surgery) does the source give for `CC(C)(C)n1ncc(OCc2ccc(COCC[18F])cc2)c(Cl)c1=O` [imaging agent 1, 2-t-butyl-4-chloro-5-[4-(2-(^18F)fluoroethoxymethyl)-benzyloxy]-2H-pyridazin-3-1] here?
**A.** 1.17±0.04 cm3

**Q.** And the “viable left ventricular tissue volume” value (viable left ventricle; early stage MI (two days post surgery))?
**A.** 0.94±0.01 cm3

**Q.** And the “viable left ventricular tissue volume” value (viable left ventricle; late stage MI (four weeks post surgery))?
**A.** 1.18±0.04 cm3

**Q.** And the “Retained Activity in syringe part” value ([1]; Barrel)?
**A.** 6.9% and 5.5% and 7.0%

**Q.** And the “Retained Activity in syringe part” value ([1]; Plunger (butyl rubber tip))?
**A.** 30.9% and 27.7% and 21.8%

**Q.** What about the “AEs judged to be related to the study drug” value (patients; 143 patients) of the same molecule?
**A.** 7

**Q.** And the “patients with AEs judged to be related to the study drug” value (patients; 143 patients)?
**A.** 2

**Q.** And the “seriousness of related AEs” value (patients; 143 patients)?
**A.** none were serious

**Q.** And the “treatment emergent adverse events (AEs) reported” value (patients; 143 patients)?
**A.** 100

**Q.** What about the “ECG at rest: effect on heart rate, PR interval, QRS duration, QTcF duration” value (patients; human, in vivo) of the same molecule?
**A.** no evidence of any clinically relevant effect

**Q.** What about the “patients reporting treatment emergent adverse events” value (patients; of 143 patients) of the same molecule?
**A.** 61

**Q.** And the “changes from baseline in vital signs, laboratory values, ECGs and EEGs” value (healthy adults)?
**A.** not clinically significant

**Q.** And the “potential cardiotoxicity (coagulation studies, Troponin-T levels)” value (healthy adults)?
**A.** not exhibited

**Q.** What about the tolerability (healthy adults) of the same molecule?
**A.** well-tolerated and no clinically significant safety concerns were raised

**Q.** What about the Mean urinary excretion ([2]; approximate 7-hour void interval) of the same molecule?
**A.** 4.83 % ID

**Q.** What about the “cumulative urine excretion as measured with PET imaging” value ([2]; in vivo) of the same molecule?
**A.** 5%

**Q.** What about the “perfusion defect area in the left ventricular wall” value [3] of the same molecule?
**A.** clearly detected

**Q.** What about the SDS [4] of the same molecule?
**A.** 12.3 ± 7

**Q.** And the SRS [4]?
**A.** 3.8 ± 6.6

**Q.** What about the SSS [4] of the same molecule?
**A.** 16.1 ± 7.8

**Q.** And the “dose without cardiovascular changes (MAP, HR, left ventricular contractility etc)” value (anesthetized naive dogs)?
**A.** ≤ 0.01 mg/kg
